Columns and labels:
Bacillus coagulans = test: Probiotic growth in media supplemented with MSM; assay type: cell-based; details: […] MSM
From the text: (§1) Plates were then counted. […] Data are presented in Cfu/mL.

[1] = test system: Lactobacillus acidophilus; test: Probiotic growth in media supplemented with MSM; assay type: cell-based
From the text: as §1

Substance: Methylsulfonylmethane [MSM]
- Growth of Bacillus coagulans (Bacillus coagulans; 48 h): 10.88 log10 CFU/mL
- Growth of Bacillus coagulans (Bacillus coagulans; 56 h): 10.86 log10 CFU/mL
- Growth of Bacillus coagulans (Bacillus coagulans; 64 h): 10.97 log10 CFU/mL
- Growth of Bacillus coagulans (Bacillus coagulans; 72 h): 11.05 log10 CFU/mL
- Growth of Lactobacillus acidophilus ([1]; 0.125% MSM, 0 h): 1.37 log10 CFU/mL
- Growth of Lactobacillus acidophilus ([1]; 0.125% MSM, 8 h): 2.19 log10 CFU/mL
- Growth of Lactobacillus acidophilus ([1]; 0.125% MSM, 16 h): 4.83 log10 CFU/mL
- Growth of Lactobacillus acidophilus ([1]; 0.125% MSM, 24 h): 7.14 log10 CFU/mL
- Growth of Lactobacillus acidophilus ([1]; 0.125% MSM, 32 h): 9.15 log10 CFU/mL
- Growth of Lactobacillus acidophilus ([1]; 0.125% MSM, 40 h): 9.53 log10 CFU/mL
- Growth of Lactobacillus acidophilus ([1]; 0.125% MSM, 48 h): 9.59 log10 CFU/mL
- Growth of Lactobacillus acidophilus ([1]; 0.125% MSM, 56 h): 10.16 log10 CFU/mL
- Growth of Lactobacillus acidophilus ([1]; 0.125% MSM, 64 h): 9.40 log10 CFU/mL
- Growth of Lactobacillus acidophilus ([1]; 0.125% MSM, 72 h): 8.56 log10 CFU/mL
- Growth of Lactobacillus acidophilus ([1]; 0.2% MSM, 0 h): 1.37 log10 CFU/mL
- Growth of Lactobacillus acidophilus ([1]; 0.2% MSM, 8 h): 1.43 log10 CFU/mL
- Growth of Lactobacillus acidophilus ([1]; 0.2% MSM, 16 h): 5.74 log10 CFU/mL
- Growth of Lactobacillus acidophilus ([1]; 0.2% MSM, 24 h): 8.19 log10 CFU/mL
- Growth of Lactobacillus acidophilus ([1]; 0.2% MSM, 32 h): 9.85 log10 CFU/mL
- Growth of Lactobacillus acidophilus ([1]; 0.2% MSM, 40 h): 9.50 log10 CFU/mL
- Growth of Lactobacillus acidophilus ([1]; 0.2% MSM, 48 h): 9.32 log10 CFU/mL
- Growth of Lactobacillus acidophilus ([1]; 0.2% MSM, 56 h): 9.26 log10 CFU/mL
- Growth of Lactobacillus acidophilus ([1]; 0.2% MSM, 64 h): 9.37 log10 CFU/mL
- Growth of Lactobacillus acidophilus ([1]; 0.2% MSM, 72 h): 8.36 log10 CFU/mL
- Growth of Lactobacillus acidophilus ([1]; 0.50% MSM, 0 h): 1.30 log10 CFU/mL
- Growth of Lactobacillus acidophilus ([1]; 0.50% MSM, 8 h): 2.01 log10 CFU/mL
- Growth of Lactobacillus acidophilus ([1]; 0.50% MSM, 16 h): 3.82 log10 CFU/mL
- Growth of Lactobacillus acidophilus ([1]; 0.50% MSM, 24 h): 6.47 log10 CFU/mL
- Growth of Lactobacillus acidophilus ([1]; 0.50% MSM, 32 h): 9.15 log10 CFU/mL
- Growth of Lactobacillus acidophilus ([1]; 0.50% MSM, 40 h): 9.58 log10 CFU/mL
- Growth of Lactobacillus acidophilus ([1]; 0.50% MSM, 48 h): 10.45 log10 CFU/mL
- Growth of Lactobacillus acidophilus ([1]; 0.50% MSM, 56 h): 9.33 log10 CFU/mL
- Growth of Lactobacillus acidophilus ([1]; 0.50% MSM, 64 h): 9.53 log10 CFU/mL
- Growth of Lactobacillus acidophilus ([1]; 0.50% MSM, 72 h): 8.57 log10 CFU/mL
- Growth of Lactobacillus acidophilus ([1]; 1% MSM, 0 h): 1.48 log10 CFU/mL
- Growth of Lactobacillus acidophilus ([1]; 1% MSM, 8 h): 2.25 log10 CFU/mL
- Growth of Lactobacillus acidophilus ([1]; 1% MSM, 16 h): 3.79 log10 CFU/mL
- Growth of Lactobacillus acidophilus ([1]; 1% MSM, 24 h): 6.77 log10 CFU/mL
- Growth of Lactobacillus acidophilus ([1]; 1% MSM, 32 h): 9.05 log10 CFU/mL
- Growth of Lactobacillus acidophilus ([1]; 1% MSM, 40 h): 9.49 log10 CFU/mL
- Growth of Lactobacillus acidophilus ([1]; 1% MSM, 48 h): 10.98 log10 CFU/mL
- Growth of Lactobacillus acidophilus ([1]; 1% MSM, 56 h): 10.90 log10 CFU/mL
- Growth of Lactobacillus acidophilus ([1]; 1% MSM, 64 h): 10.34 log10 CFU/mL
- Growth of Lactobacillus acidophilus ([1]; 1% MSM, 72 h): 8.68 log10 CFU/mL
- Growth of Lactobacillus acidophilus ([1]; 5% MSM, 0 h): 1.52 log10 CFU/mL
- Growth of Lactobacillus acidophilus ([1]; 5% MSM, 8 h): 1.37 log10 CFU/mL
- Growth of Lactobacillus acidophilus ([1]; 5% MSM, 16 h): 2.69 log10 CFU/mL
- Growth of Lactobacillus acidophilus ([1]; 5% MSM, 24 h): 5.36 log10 CFU/mL
- Growth of Lactobacillus acidophilus ([1]; 5% MSM, 32 h): 8.91 log10 CFU/mL
- Growth of Lactobacillus acidophilus ([1]; 5% MSM, 40 h): 9.25 log10 CFU/mL
- Growth of Lactobacillus acidophilus ([1]; 5% MSM, 48 h): 10.88 log10 CFU/mL
- Growth of Lactobacillus acidophilus ([1]; 5% MSM, 56 h): 10.01 log10 CFU/mL
- Growth of Lactobacillus acidophilus ([1]; 5% MSM, 64 h): 8.95 log10 CFU/mL
- Growth of Lactobacillus acidophilus ([1]; 5% MSM, 72 h): 6.66 log10 CFU/mL
- Growth of Lactobacillus acidophilus ([1]; […] MSM, 0 h): 1.48 log10 CFU/mL
- Growth of Lactobacillus acidophilus ([1]; […] MSM, 8 h): 2.20 log10 CFU/mL
- Growth of Lactobacillus acidophilus ([1]; […] MSM, 16 h): 4.24 log10 CFU/mL
- Growth of Lactobacillus acidophilus ([1]; […] MSM, 24 h): 5.78 log10 CFU/mL
- Growth of Lactobacillus acidophilus ([1]; […] MSM, 32 h): 9.16 log10 CFU/mL
- Growth of Lactobacillus acidophilus ([1]; […] MSM, 40 h): 9.35 log10 CFU/mL
- Growth of Lactobacillus acidophilus ([1]; […] MSM, 48 h): 10.16 log10 CFU/mL
- Growth of Lactobacillus acidophilus ([1]; […] MSM, 56 h): 11.10 log10 CFU/mL
- Growth of Lactobacillus acidophilus ([1]; […] MSM, 64 h): 11.58 log10 CFU/mL
- Growth of Lactobacillus acidophilus ([1]; […] MSM, 72 h): 8.44 log10 CFU/mL

From patent US20110105623A1 (Biogenic Innovations, LLC, priority 2009, published 2011)
